From publication PMC4721142, “Randomized controlled studies on the efficacy of antiarthritic agents in inhibiting cartilage degeneration and pain associated with progression of osteoarthritis in the rat” (Arthritis Research & Therapy, 2016)
Several values for one entry are separate records, joined by “and”; a condition that tells them apart may be missing. Equal values may be shown once.

Columns and labels:
MMP-13 = MMP-13 ELISA on supernatants of TNF-α-treated chondrogenic pellets; assay type: cell-based, human
MIA rat model of OA = assay: MIA trial 2 digital Randall-Selitto test (daily tacrolimus 0.3 or 0.6 mg/kg i.p., curcumin 50 mg/kg p.o., fluocinolone 0.01 mg/kg s.c.; weekly clonidine 0.1 mg/kg s.c.); assay type: in vivo; settings: day 21; tacrolimus 0.3 mg/kg, other drugs single dose
Description: The digital Randall-Selitto (dRS) test is said to be a reliable and repeatable measure of neuropathic, bone, and inflammatory pain behavior in several different models, including those of arthritic or joint pain [29, 31, 32]. Baseline and posttreatment values were evaluated using a dRS test device (IITC Life Science, Woodland Hills, CA, USA). Animals were allowed to acclimate to the testing room before all experimentation and for a minimum of 30 minutes before testing. To ensure that their hind limbs were accessible, the animals were gently suspended in a restraint sling. The joint compression threshold was measured once at each time point for the ipsilateral and contralateral knee joints. Pressure was applied gradually over approximately 10 seconds to the medial and lateral aspects of the knee joint. Measurements were taken from the first observed behavior of vocalization, struggle, or withdrawal. A cutoff value of 600 g was used to prevent injury to the animal.
Following isoflurane anesthesia, 50 μl (2 mg) of MIA was injected into the synovial space of the left knee. Animals were randomly assigned to groups, and pain behavior was assessed 7, 14, 21, and 28 days following MIA injection and intervention using WB with the Stoelting incapacitance meter (trial 1) or the dRS test (trials 2 and 3). […] Animals received MIA treatment and then saline control or therapeutic. […] Histopathology was performed at each time point and at study termination. All studies were conducted in accordance with the International Association for the Study of Pain Guidelines and were approved by the Algos Therapeutics, Inc. Institutional Animal Care and Use Committee (IACUC) before initiation. Those running the studies were blind to the treatments. See Additional file 1 for further details.

MMT/MCLT rat model of OA = assay: MMT/MCLT trial 1 histopathology (same doses); assay type: in vivo; settings: low or only dose
Summary of the method: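 Rat knee joints were sectioned in 200-μm steps and stained with toluidine blue. Tibial cartilage degeneration was scored on a 5-point scale in three zones and summed with femoral scores, plus osteophyte scores, to give a total joint score. Results were averaged over three sections.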

## Clc1cccc(Cl)c1N=C1NCCN1 [Clonidine]
MMP-13
  Effective range against MMP-13: Not effective
MIA rat model of OA
  dRS, hours after dosing with significant difference: 3 h
MMT/MCLT rat model of OA; mean
  Bone score: 2.88
  Depth ratio any matrix change, mean: 0.35
  Depth ratio any matrix change, zone 2: 0.16
  Femoral cartilage degeneration score: 1.29 and 1.29 ± 0.20
  Tibial cartilage degeneration score, 3-zone total: 6.13
  Tibial cartilage degeneration score, zone 1: 4.13
  Tibial cartilage degeneration score, zone 2: 2.00
  Tibial cartilage degeneration score, zone 3: 0.00
  Tibial cartilage degeneration width, significant: 691.67 µm
  Tibial cartilage degeneration width, total: 1175.00 µm
  Tibial osteophyte measure: 540.00 µm
  Tibial osteophyte score: 3.92
  Total joint score: 11.33 and 11.33 ± 0.55
  Total joint score w/o femur: 10.04
MMT/MCLT rat model of OA; vs saline group
  % decrease, bone score: 12%
  % decrease, depth ratio mean: 2%
  % decrease, depth ratio zone 2: 14%
  % decrease, femoral cartilage degeneration score: 30%
  % decrease, osteophyte measure: -5%
  % decrease, osteophyte score: 0%
  % decrease, significant degeneration width: 5%
  % decrease, tibial score 3-zone total: 6%
  % decrease, tibial score zone 1: 4%
  % decrease, tibial score zone 2: 9%
  % decrease, tibial score zone 3: 100%
  % decrease, total degeneration width: 10%
  % decrease, total joint score: 8%
  % decrease, total joint score w/o femur: 4%
